Assays:
Conditions in all cases: incubation time: 72 h
MDA-MB-453 [1] = assay: normalised viability (% of control), CellTiter-Blue; higher = more viable cells (about 100 = DMSO control)
Method in brief: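 Plates were quality-checked by Z'-factor and normalised to vehicle (100) and a positive kill control (0). The underlying assay incubated breast cancer cell lines for 72 h on 384-well plates with compound, then added 2.5 µl CellTiter-Blue for 2 h at 37 °C and read at 560/590 nm. The value is normalised viability at a single listed concentration of the series.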

BT-549 [2] = assay: normalised viability (% of control), CellTiter-Blue; higher = more viable cells (100 = DMSO, 0 = benzethonium chloride kill control)
Description: (§1)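 DSRT, CellTiter-Blue viability, 72 h incubation. Signal is normalised to DMSO and benzethonium chloride controls. Value is the normalised response at dose 1.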

SK-BR-3 [3] = assay: as above
Description: as §1

BT-474 [4] = assay: as above
Description: as §1

MDA-MB-453 [5] = assay: as above
Description: as §1

DU-4475 [6] = assay: as above
Description: as §1

CAL-85-1 [7] = assay: as above
Description: as §1

HCC1599 [8] = assay: as above
Description: as §1

MDA-MB-436 [9] = assay: as above
Description: as §1

MDA-MB-231 [10] = assay: as above
Description: as §1

MDA-MB-468 [11] = assay: as above
Description: as §1

HCC1143 [12] = assay: as above
Description: as §1

CAL-51 [13] = assay: as above
Description: as §1

BT-549 [14] = assay: normalised viability (% of control), CellTiter-Blue; higher = more viable cells (about 100 = DMSO control)
Description: (§2)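 DSRT, CellTiter-Blue viability, 72 h incubation. Signal is normalised to DMSO and benzethonium chloride controls. Value is the normalised response at dose 3.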

SK-BR-3 [15] = assay: as above
Description: as §2

BT-474 [16] = assay: as above
Description: as §2

HDQ-P1 = assay: as above
Description: as §2

MDA-MB-453 [17] = assay: as above; remark: listed apart in the source
Description: as §2

CAL-120 = assay: as above
Description: as §2

DU-4475 [18] = assay: as above
Description: as §2

CAL-85-1 [19] = assay: as above
Description: as §2

Hs578T = assay: as above
Description: as §2

MFM-223 = assay: as above
Description: as §2

HCC1937 = assay: as above
Description: as §2

HCC1599 [20] = assay: as above
Description: as §2

CAL-148 = assay: as above
Description: as §2

MDA-MB-436 [21] = assay: as above
Description: as §2

MDA-MB-231 [22] = assay: as above
Description: as §2

MDA-MB-468 [23] = assay: as above
Description: as §2

HCC1143 [24] = assay: as above
Description: as §2

CAL-51 [25] = assay: as above
Description: as §2

Structure (SMILES): Nc1ccccc1NC(=O)c1ccc(CNC(=O)OCc2cccnc2)cc1 [Entinostat]
- normalised viability (MDA-MB-453 [1]; 1000 nM): 89.1%
- normalised viability (BT-549 [2]; 1 nM): 107%
- normalised viability (SK-BR-3 [3]; 1 nM): 102%
- normalised viability (BT-474 [4]; 1 nM): 109%
- normalised viability (MDA-MB-453 [5]; 1 nM): 113%
- normalised viability (DU-4475 [6]; 1 nM): 119%
- normalised viability (CAL-85-1 [7]; 1 nM): 97%
- normalised viability (HCC1599 [8]; 1 nM): 102%
- normalised viability (MDA-MB-436 [9]; 1 nM): 124%
- normalised viability (MDA-MB-231 [10]; 1 nM): 102%
- normalised viability (MDA-MB-468 [11]; 1 nM): 110%
- normalised viability (HCC1143 [12]; 1 nM): 95.7%
- normalised viability (CAL-51 [13]; 1 nM): 110%
- normalised viability (BT-549 [14]; 100 nM): 91.5%
- normalised viability (SK-BR-3 [15]; 100 nM): 85.6%
- normalised viability (BT-474 [16]; 100 nM): 106%
- normalised viability (HDQ-P1; 10 nM): 102%
- normalised viability (MDA-MB-453 [17]; 10 nM): 120%
- normalised viability (CAL-120; 100 nM): 85.4%
- normalised viability (DU-4475 [18]; 10 nM): 117%
- normalised viability (CAL-85-1 [19]; 10 nM): 96.7%
- normalised viability (Hs578T; 100 nM): 93.3%
- normalised viability (MFM-223; 100 nM): 100%
- normalised viability (HCC1937; 100 nM): 104%
- normalised viability (HCC1599 [20]; 100 nM): 93.3%
- normalised viability (CAL-148; 10 nM): 93.3%
- normalised viability (MDA-MB-436 [21]; 100 nM): 83.5%
- normalised viability (MDA-MB-231 [22]; 100 nM): 97.1%
- normalised viability (MDA-MB-468 [23]; 100 nM): 110%
- normalised viability (HCC1143 [24]; 100 nM): 82.2%
- normalised viability (CAL-51 [25]; 10 nM): 114%

Structure (SMILES): O=C(/C=C/c1cccnc1)NCCCCC1CCN(C(=O)c2ccccc2)CC1 [FK-866]
- normalised viability (MDA-MB-453 [1]; 100 nM): 21.1%
- normalised viability (BT-549 [2]; 0.1 nM): 97.3%
- normalised viability (SK-BR-3 [3]; 0.1 nM): 94.4%
- normalised viability (BT-474 [4]; 0.1 nM): 99.3%
- normalised viability (MDA-MB-453 [5]; 0.1 nM): 103%
- normalised viability (DU-4475 [6]; 0.1 nM): 102%
- normalised viability (CAL-85-1 [7]; 0.1 nM): 85.7%
- normalised viability (HCC1599 [8]; 0.1 nM): 105%
- normalised viability (MDA-MB-436 [9]; 0.1 nM): 107%
- normalised viability (MDA-MB-231 [10]; 0.1 nM): 96.6%
- normalised viability (MDA-MB-468 [11]; 0.1 nM): 106%
- normalised viability (HCC1143 [12]; 0.1 nM): 97.5%
- normalised viability (CAL-51 [13]; 0.1 nM): 101%
- normalised viability (BT-549 [14]; 10 nM): 38.6%
- normalised viability (SK-BR-3 [15]; 10 nM): 91.2%
- normalised viability (BT-474 [16]; 10 nM): 91.6%
- normalised viability (HDQ-P1; 1 nM): 120%
- normalised viability (MDA-MB-453 [17]; 1 nM): 86.1%
- normalised viability (CAL-120; 10 nM): 55%
- normalised viability (DU-4475 [18]; 1 nM): 84.9%
- normalised viability (CAL-85-1 [19]; 1 nM): 103%
- normalised viability (Hs578T; 10 nM): 20.1%
- normalised viability (MFM-223; 10 nM): 23.2%
- normalised viability (HCC1937; 10 nM): 91.1%
- normalised viability (HCC1599 [20]; 10 nM): 74.7%
- normalised viability (CAL-148; 1 nM): 91.5%
- normalised viability (MDA-MB-436 [21]; 10 nM): 38%
- normalised viability (MDA-MB-231 [22]; 10 nM): 83.1%
- normalised viability (MDA-MB-468 [23]; 10 nM): 8.4%
- normalised viability (HCC1143 [24]; 10 nM): 43.2%
- normalised viability (CAL-51 [25]; 1 nM): 102%

Structure (SMILES): Nc1nc(F)nc2c1ncn2[C@@H]1O[C@H](CO)[C@@H](O)[C@@H]1O [Fludarabine]
- normalised viability (MDA-MB-453 [1]; 1000 nM): 108%
- normalised viability (BT-549 [2]; 1 nM): 110%
- normalised viability (SK-BR-3 [3]; 1 nM): 98.7%
- normalised viability (BT-474 [4]; 1 nM): 67.6%
- normalised viability (MDA-MB-453 [5]; 1 nM): 102%
- normalised viability (DU-4475 [6]; 1 nM): 101%
- normalised viability (CAL-85-1 [7]; 1 nM): 92.8%
- normalised viability (HCC1599 [8]; 1 nM): 92.6%
- normalised viability (MDA-MB-436 [9]; 1 nM): 90.5%
- normalised viability (MDA-MB-231 [10]; 1 nM): 89.1%
- normalised viability (MDA-MB-468 [11]; 1 nM): 91.2%
- normalised viability (HCC1143 [12]; 1 nM): 86.8%
- normalised viability (CAL-51 [13]; 1 nM): 103%
- normalised viability (BT-549 [14]; 100 nM): 107%
- normalised viability (SK-BR-3 [15]; 100 nM): 99.9%
- normalised viability (BT-474 [16]; 100 nM): 107%
- normalised viability (HDQ-P1; 10 nM): 103%
- normalised viability (MDA-MB-453 [17]; 10 nM): 109%
- normalised viability (CAL-120; 100 nM): 82.2%
- normalised viability (DU-4475 [18]; 10 nM): 115%
- normalised viability (CAL-85-1 [19]; 10 nM): 101%
- normalised viability (Hs578T; 100 nM): 95.4%
- normalised viability (MFM-223; 100 nM): 92.8%
- normalised viability (HCC1937; 100 nM): 110%
- normalised viability (HCC1599 [20]; 100 nM): 105%
- normalised viability (CAL-148; 10 nM): 90.9%
- normalised viability (MDA-MB-436 [21]; 100 nM): 95.2%
- normalised viability (MDA-MB-231 [22]; 100 nM): 95.3%
- normalised viability (MDA-MB-468 [23]; 100 nM): 109%
- normalised viability (HCC1143 [24]; 100 nM): 83%
- normalised viability (CAL-51 [25]; 10 nM): 101%

Structure (SMILES): O=C(Cc1ccc(-c2ccc(OCCN3CCOCC3)cc2)cn1)NCc1ccccc1 [KX2-391]
- normalised viability (MDA-MB-453 [1]; 1000 nM): 25%
- normalised viability (BT-549 [2]; 1 nM): 124%
- normalised viability (SK-BR-3 [3]; 1 nM): 105%
- normalised viability (BT-474 [4]; 1 nM): 79.1%
- normalised viability (MDA-MB-453 [5]; 1 nM): 116%
- normalised viability (DU-4475 [6]; 1 nM): 103%
- normalised viability (CAL-85-1 [7]; 1 nM): 84.6%
- normalised viability (HCC1599 [8]; 1 nM): 85.8%
- normalised viability (MDA-MB-436 [9]; 1 nM): 89%
- normalised viability (MDA-MB-231 [10]; 1 nM): 92.8%
- normalised viability (MDA-MB-468 [11]; 1 nM): 113%
- normalised viability (HCC1143 [12]; 1 nM): 92.7%
- normalised viability (CAL-51 [13]; 1 nM): 106%
- normalised viability (BT-549 [14]; 100 nM): 27.8%
- normalised viability (SK-BR-3 [15]; 100 nM): 19.3%
- normalised viability (BT-474 [16]; 100 nM): 63.5%
- normalised viability (HDQ-P1; 10 nM): 108%
- normalised viability (MDA-MB-453 [17]; 10 nM): 107%
- normalised viability (CAL-120; 100 nM): 27.6%
- normalised viability (DU-4475 [18]; 10 nM): 94.4%
- normalised viability (CAL-85-1 [19]; 10 nM): 88.1%
- normalised viability (Hs578T; 100 nM): 20.7%
- normalised viability (MFM-223; 100 nM): 52.8%
- normalised viability (HCC1937; 100 nM): 25.1%
- normalised viability (HCC1599 [20]; 100 nM): 88%
- normalised viability (CAL-148; 10 nM): 89.1%
- normalised viability (MDA-MB-436 [21]; 100 nM): 59.9%
- normalised viability (MDA-MB-231 [22]; 100 nM): 26.1%
- normalised viability (MDA-MB-468 [23]; 100 nM): 47.6%
- normalised viability (HCC1143 [24]; 100 nM): 33%
- normalised viability (CAL-51 [25]; 10 nM): 101%

Structure (SMILES): N#Cc1ccc(C(c2ccc(C#N)cc2)n2cncn2)cc1 [Letrozole]
- normalised viability (MDA-MB-453 [1]; 1000 nM): 96.5%
- normalised viability (BT-549 [2]; 1 nM): 105%
- normalised viability (SK-BR-3 [3]; 1 nM): 86.8%
- normalised viability (BT-474 [4]; 1 nM): 73.4%
- normalised viability (MDA-MB-453 [5]; 1 nM): 96.4%
- normalised viability (DU-4475 [6]; 1 nM): 96.3%
- normalised viability (CAL-85-1 [7]; 1 nM): 83.2%
- normalised viability (HCC1599 [8]; 1 nM): 103%
- normalised viability (MDA-MB-436 [9]; 1 nM): 114%
- normalised viability (MDA-MB-231 [10]; 1 nM): 78.8%
- normalised viability (MDA-MB-468 [11]; 1 nM): 90.6%
- normalised viability (HCC1143 [12]; 1 nM): 73.7%
- normalised viability (CAL-51 [13]; 1 nM): 108%
- normalised viability (BT-549 [14]; 100 nM): 97%
- normalised viability (SK-BR-3 [15]; 100 nM): 83%
- normalised viability (BT-474 [16]; 100 nM): 102%
- normalised viability (HDQ-P1; 10 nM): 101%
- normalised viability (MDA-MB-453 [17]; 10 nM): 88%
- normalised viability (CAL-120; 100 nM): 76.4%
- normalised viability (DU-4475 [18]; 10 nM): 99.8%
- normalised viability (CAL-85-1 [19]; 10 nM): 90.3%
- normalised viability (Hs578T; 100 nM): 88.1%
- normalised viability (MFM-223; 100 nM): 74.9%
- normalised viability (HCC1937; 100 nM): 97.4%
- normalised viability (HCC1599 [20]; 100 nM): 104%
- normalised viability (CAL-148; 10 nM): 87.8%
- normalised viability (MDA-MB-436 [21]; 100 nM): 106%
- normalised viability (MDA-MB-231 [22]; 100 nM): 84%
- normalised viability (MDA-MB-468 [23]; 100 nM): 91.3%
- normalised viability (HCC1143 [24]; 100 nM): 77.9%
- normalised viability (CAL-51 [25]; 10 nM): 110%
